Reference: patent US7687624B2, “Process for the production of N-arylmorpholinones” (Merck Patent GmbH, priority 2003, dated 2010)

Conditions: pKa value of the amine; cited from earlier work

In order of falling pKa:
1. NCc1ccccc1 [Benzylamine]  9.5
2. COc1ccc(N)cc1 [4-Methoxyaniline]  5.4
3. Nc1cccc([N+](=O)[O-])c1 [3-Nitroaniline]  2.5
4. Nc1ccc(C(=O)c2ccccc2)cc1 [4-Aminobenzophenone]  2.2
5. N#Cc1ccc(N)cc1 [4-Cyanoaniline]  1.7
6. COC(=O)c1ccc(N)cc1 [Methyl 4-aminobenzoate]  1.5
7. Cc1cc([N+](=O)[O-])ccc1N [2-Methyl-4-nitroaniline]  1.04
8. Nc1ccccc1[N+](=O)[O-] [2-Nitroaniline]  −0.23

Conditions: not given

With O=C1COCCN1c1ccc([N+](=O)[O-])cc1 [Example 1, 4-(4-Nitrophenyl)-3-oxomorpholine] the melting point was 150 to 152 °C.
